Patent US20050074463A1, “Therapeutic vaccination method, mutated peptides of hiv reverse transciptase and their use for vaccination and diagnostic purposes” (Universite Pierre et Marie Curie-paris VI, priority 2001, published 2005)

Assays:
[1] = tested on: gamma-IFN-producing CD8 cells in PBMCs from patient 201#5; experiment: ELISpot-γIFN assay, ex vivo recognition of epitope peptides by PBMCs; conditions: PBMCs from patient 201#5 treated with NRTIs and carrying RT mutation 41 (M>L), no prior stimulation
[2] = target: Mutated peptide 33-41 of HIV-1 reverse transcriptase (mutation 41 M>L) (HIV-1)
[3] = target: Wild-type peptide 33-41 of HIV-1 reverse transcriptase (HIV-1)

Substance	frequency of recognition (cells secreting γIFN), SFC/10^6 PBMCs [1]	SFC/10^6 PBMCs (ELISpot gamma-IFN) (SFC/10^6 PBMCs) [2]	SFC/10^6 PBMCs (ELISpot gamma-IFN) (SFC/10^6 PBMCs) [3]
ALVEICTEL [mutated peptide 33-41]	95 SFC/10^6 PBMCs		
ALVEICTEM [wild-type peptide 33-41]	3 SFC/10^6 PBMCs		
PBMCs from patient 201#5 (cells without a defined receptor)		95	3
